Among the test systems are DU-145 prostate; OVCAR-3 ovarian; MDA-N; NCI/ADR-RES ovarian; NCI-H522 lung; NCI-H226 lung; MCF7 breast; HOP-92 NSCLC; RXF 393 renal; OVCAR-5 ovarian.
What all share (test): NCI anticancer screen, dose series, 48 h

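Results reflect a 48-hour exposure of cells in 96-well plates to compound at five concentrations. TGI is the concentration that stops growth completely.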

Consider `C[n+]1c2ccccc2n2c3ccccc3c(NCCCn3ccnc3)c(C#N)c21`, for which the TGI is 15.5 µM with DU-145 prostate; above 25.2 µM in the experiment with OVCAR-3 ovarian; 9.82 µM in the experiment on MDA-N; above 93.5 µM in the experiment on NCI/ADR-RES ovarian; 2180 nM in the experiment with NCI-H522 lung; 9.11 µM with NCI-H226 lung. The TGI in the experiment on MCF7 breast was above 34 µM; in the experiment on HOP-92 NSCLC, above 20.2 µM; in the experiment on RXF 393 renal, 3.48 µM; in the experiment on OVCAR-5 ovarian, 18.7 µM.

Values taken from PubChem BioAssay (NCI).
